Test [1] deals with Sigma non-opioid intracellular receptor 1 (Cavia porcellus) (UniProt Q60492). Description: In vitro binding affinity at Sigma opioid receptors on guinea pig brain membranes by [3H]-3-PPP displacement.
Test [2] can be described thus: In vitro binding affinity at Sigma opioid receptors on guinea pig brain membranes by [3H]3-PPP displacement.
Test [3] has as its target Sigma-2 receptor (guinea pig). The test can be described thus: TIn vitro binding affinity at Sigma opioid receptor type 2 on guinea pig brain membranes by [3H]DTG displacement in the presence of […].

Structures can show the parent of a compound that is named as a salt. Some results are limits rather than exact numbers.

Sequence of Sigma non-opioid intracellular receptor 1 (Cavia porcellus) (Q60492 whole entry, looked up): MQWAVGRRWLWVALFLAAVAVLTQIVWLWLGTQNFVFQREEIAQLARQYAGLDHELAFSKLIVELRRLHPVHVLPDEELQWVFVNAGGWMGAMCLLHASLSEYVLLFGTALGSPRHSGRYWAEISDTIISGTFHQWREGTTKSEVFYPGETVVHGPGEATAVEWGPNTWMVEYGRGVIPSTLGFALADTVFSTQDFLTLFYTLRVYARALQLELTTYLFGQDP

As a reminder, the IC50 is the concentration at which inhibition is half-maximal. On to `CCCC(N)(CCC)Cc1ccc(OC)c(OCCc2ccccc2)c1` [1-(4-Methoxy-3-phenethyloxy-benzyl)-1-propyl-butylamine; compound with (E)-but-2-enedioic acid], for which, in test [1], the IC50 was > 1000 nM.

Consider `COc1ccc(CC(C)N)cc1OCCc1ccccc1` (centres undefined) [2-(4-Methoxy-3-phenethyloxy-phenyl)-1-methyl-ethylamine; hydrochloride], for which, in test [2], the IC50 is > 1000 nM.

In test [2], `CCCCCC(N)Cc1ccc(OC)c(OCCc2ccccc2)c1` (centres undefined) [1-(4-Methoxy-3-phenethyloxy-benzyl)-hexylamine; hydrochloride] returned a 50% inhibitory concentration (IC50) of 110 nM.

As for `CCCCCCC(N)Cc1ccc(OC)c(OCCc2ccccc2)c1` (centres undefined) [1-(4-Methoxy-3-phenethyloxy-benzyl)-heptylamine], in test [2], the IC50 is 170 nM.

`CCCNC(C)Cc1ccc(OC)c(OCCc2ccccc2)c1` (centres undefined) [[2-(4-Methoxy-3-phenethyloxy-phenyl)-1-methyl-ethyl]-propyl-amine; hydrochloride] yielded a 50% inhibitory concentration (IC50) in test [2] of 10 nM.

Regarding `CCC(N)Cc1ccc(OC)c(OCCc2ccccc2)c1` (centres undefined) [1-(4-Methoxy-3-phenethyloxy-benzyl)-propylamine; hydrochloride], the IC50 in test [2] is > 1000 nM.

For `CCCCCCC(Cc1ccc(OC)c(OCCc2ccccc2)c1)NCCC` (centres undefined) [[1-(4-Methoxy-3-phenethyloxy-benzyl)-heptyl]-propyl-amine], the IC50 in test [3] amounted to 230 nM; in test [2], 9 nM.

Take `CCCCCCCCC(N)Cc1ccc(OC)c(OCCc2ccccc2)c1` (centres undefined) [1-(4-Methoxy-3-phenethyloxy-benzyl)-nonylamine]: the concentration for half-maximal inhibition (IC50) in test [2] is > 1000 nM.

On to `CCCCCC(Cc1ccc(OC)c(OCCc2ccccc2)c1)N(CCC)CCC` (centres undefined) [[1-(4-Methoxy-3-phenethyloxy-benzyl)-hexyl]-dipropyl-amine; hydrochloride], for which the IC50 in test [1] is 30 nM.

On to `CCCCCCCCC(Cc1ccc(OC)c(OCCc2ccccc2)c1)NCCC` (centres undefined) [[1-(4-Methoxy-3-phenethyloxy-benzyl)-nonyl]-propyl-amine], for which the IC50 in test [2] came to 170 nM.

For the compound `CCCN(CCC)C(C)Cc1ccc(OC)c(OCCc2ccccc2)c1` (centres undefined) [[2-(4-Methoxy-3-phenethyloxy-phenyl)-1-methyl-ethyl]-dipropyl-amine], in test [2], the IC50 worked out at 12 nM.

In test [2], `CCCCCCCC(Cc1ccc(OC)c(OCCc2ccccc2)c1)N(CCC)CCC` (centres undefined) [[1-(4-Methoxy-3-phenethyloxy-benzyl)-octyl]-dipropyl-amine] showed an IC50 of 230 nM.

For `CCCCCCCC(N)Cc1ccc(OC)c(OCCc2ccccc2)c1` (centres undefined) [1-(4-Methoxy-3-phenethyloxy-benzyl)-octylamine], in test [2], the IC50 stood at 420 nM.

Regarding `CCCCCC(Cc1ccc(OC)c(OCCc2ccccc2)c1)NCCC` (centres undefined) [[1-(4-Methoxy-3-phenethyloxy-benzyl)-hexyl]-propyl-amine; hydrochloride], the IC50 in test [3] is 110 nM; in test [2], 1.5 nM.

Take `CCCCCCC(Cc1ccc(OC)c(OCCc2ccccc2)c1)N(CCC)CCC` (centres undefined) [[1-(4-Methoxy-3-phenethyloxy-benzyl)-heptyl]-dipropyl-amine]: the half-maximal inhibitory concentration (IC50) in test [2] was determined as 150 nM.

`CCCCC(Cc1ccc(OC)c(OCCc2ccccc2)c1)N(CCC)CCC` (centres undefined) [[1-(4-Methoxy-3-phenethyloxy-benzyl)-pentyl]-dipropyl-amine]: the half-maximal inhibitory concentration (IC50) in test [2] amounted to 29 nM.

The compound `CCCCC(N)Cc1ccc(OC)c(OCCc2ccccc2)c1` (centres undefined) [1-(4-Methoxy-3-phenethyloxy-benzyl)-pentylamine] yielded an IC50 in test [2] of 160 nM.

In the case of `CCCCCCCCC(Cc1ccc(OC)c(OCCc2ccccc2)c1)N(CCC)CCC` (centres undefined) [[1-(4-Methoxy-3-phenethyloxy-benzyl)-nonyl]-dipropyl-amine], the 50% inhibitory concentration (IC50) in test [2] is > 1000 nM.

Consider `CCCNC(CC)Cc1ccc(OC)c(OCCc2ccccc2)c1` (centres undefined) [[1-(4-Methoxy-3-phenethyloxy-benzyl)-propyl]-propyl-amine], for which the IC50 in test [3] was 330 nM; in test [2] it was 8 nM.

As to `CCCC(Cc1ccc(OC)c(OCCc2ccccc2)c1)N(CCC)CCC` (centres undefined) [[1-(4-Methoxy-3-phenethyloxy-benzyl)-butyl]-dipropyl-amine], the values for the IC50 in test [3] and in test [2] were 420 nM and 9.5 nM, respectively.

The values above are taken from BindingDB's records for doi:10.1021/jm990135j (Taisho Pharmaceutical, 1999).
